Experimental data from the supplement of paper PMC12076712.

Legend:
Assay in all cases: pIC50, kinobeads binding competition
Details in all cases: cell material: Jurkat lysate
ARAF = ARAF (UniProt P10398)
MAP4K3 = biological target: T1, MAP4K3 (UniProt Q8IVH8)
T1 sequence (whole entry): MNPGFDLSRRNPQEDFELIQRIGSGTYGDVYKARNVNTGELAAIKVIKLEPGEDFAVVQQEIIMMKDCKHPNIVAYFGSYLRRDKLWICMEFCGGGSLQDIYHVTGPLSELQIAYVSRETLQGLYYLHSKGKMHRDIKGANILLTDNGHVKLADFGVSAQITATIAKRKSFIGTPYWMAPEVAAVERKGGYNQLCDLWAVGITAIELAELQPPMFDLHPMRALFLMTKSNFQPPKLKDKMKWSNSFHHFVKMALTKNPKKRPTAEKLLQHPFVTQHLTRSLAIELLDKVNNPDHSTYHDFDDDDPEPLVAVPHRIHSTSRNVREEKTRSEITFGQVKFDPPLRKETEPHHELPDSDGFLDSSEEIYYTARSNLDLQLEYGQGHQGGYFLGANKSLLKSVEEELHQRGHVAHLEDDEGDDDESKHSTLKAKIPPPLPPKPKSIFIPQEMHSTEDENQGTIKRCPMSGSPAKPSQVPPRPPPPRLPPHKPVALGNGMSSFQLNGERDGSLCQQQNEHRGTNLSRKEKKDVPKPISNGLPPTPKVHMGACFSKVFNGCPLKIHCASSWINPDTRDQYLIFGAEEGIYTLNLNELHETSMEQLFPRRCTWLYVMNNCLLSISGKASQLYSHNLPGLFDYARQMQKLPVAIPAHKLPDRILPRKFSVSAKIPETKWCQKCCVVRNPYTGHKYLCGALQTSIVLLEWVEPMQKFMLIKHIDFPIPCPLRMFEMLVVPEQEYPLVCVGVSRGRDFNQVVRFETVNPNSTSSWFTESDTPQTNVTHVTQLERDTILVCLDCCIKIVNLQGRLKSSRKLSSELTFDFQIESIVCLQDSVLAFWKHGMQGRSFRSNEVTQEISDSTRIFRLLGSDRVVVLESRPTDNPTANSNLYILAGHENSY

RIOK1 = biological target: T2, RIOK1 (UniProt Q9BRS2)
T2 sequence (whole entry): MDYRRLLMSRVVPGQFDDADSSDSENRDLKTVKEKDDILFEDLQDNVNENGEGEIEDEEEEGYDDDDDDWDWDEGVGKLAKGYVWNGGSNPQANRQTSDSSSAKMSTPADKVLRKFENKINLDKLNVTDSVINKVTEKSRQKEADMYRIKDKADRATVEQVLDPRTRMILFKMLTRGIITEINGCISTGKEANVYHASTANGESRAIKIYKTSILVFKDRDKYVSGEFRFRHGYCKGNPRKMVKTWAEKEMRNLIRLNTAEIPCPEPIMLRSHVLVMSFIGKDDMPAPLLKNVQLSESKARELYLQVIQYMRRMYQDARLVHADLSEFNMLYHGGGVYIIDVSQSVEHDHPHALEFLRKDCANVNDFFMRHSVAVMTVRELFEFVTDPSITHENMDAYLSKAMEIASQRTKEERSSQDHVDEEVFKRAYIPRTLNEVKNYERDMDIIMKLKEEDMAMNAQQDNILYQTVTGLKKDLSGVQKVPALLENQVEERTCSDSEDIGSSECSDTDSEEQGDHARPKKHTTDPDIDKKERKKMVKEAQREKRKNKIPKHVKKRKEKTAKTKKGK

ULK1 = biological target: T3, ULK1 (UniProt O75385)
T3 sequence (whole entry): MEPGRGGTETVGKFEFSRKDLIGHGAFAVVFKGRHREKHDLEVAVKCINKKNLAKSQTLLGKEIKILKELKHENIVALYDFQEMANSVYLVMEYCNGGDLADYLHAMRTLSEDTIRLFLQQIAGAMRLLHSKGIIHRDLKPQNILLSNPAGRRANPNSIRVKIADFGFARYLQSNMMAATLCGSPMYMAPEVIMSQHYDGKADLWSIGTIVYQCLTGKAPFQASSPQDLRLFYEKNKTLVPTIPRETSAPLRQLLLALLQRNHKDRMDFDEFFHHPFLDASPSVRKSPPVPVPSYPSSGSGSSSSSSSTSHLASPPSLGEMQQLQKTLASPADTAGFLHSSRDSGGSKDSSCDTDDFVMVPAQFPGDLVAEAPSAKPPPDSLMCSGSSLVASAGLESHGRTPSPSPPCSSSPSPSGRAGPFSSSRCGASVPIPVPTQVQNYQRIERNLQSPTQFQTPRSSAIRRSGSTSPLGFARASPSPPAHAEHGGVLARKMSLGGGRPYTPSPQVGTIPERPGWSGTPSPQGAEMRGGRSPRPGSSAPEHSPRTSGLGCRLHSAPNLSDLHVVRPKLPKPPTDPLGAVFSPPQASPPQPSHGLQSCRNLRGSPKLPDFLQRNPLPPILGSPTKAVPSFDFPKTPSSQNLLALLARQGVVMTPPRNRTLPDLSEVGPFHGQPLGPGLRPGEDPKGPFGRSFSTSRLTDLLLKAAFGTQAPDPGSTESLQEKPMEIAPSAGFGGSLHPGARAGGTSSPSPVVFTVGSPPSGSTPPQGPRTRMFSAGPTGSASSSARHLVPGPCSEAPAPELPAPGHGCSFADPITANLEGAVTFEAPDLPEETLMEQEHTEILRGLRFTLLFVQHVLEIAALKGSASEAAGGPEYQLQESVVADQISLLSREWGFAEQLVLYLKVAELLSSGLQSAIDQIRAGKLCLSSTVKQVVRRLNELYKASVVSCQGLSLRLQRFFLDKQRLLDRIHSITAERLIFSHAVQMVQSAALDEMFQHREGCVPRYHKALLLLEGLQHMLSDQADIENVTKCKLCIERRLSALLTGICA

UniProt O75460 = biological target: UniProt O75460
UniProt O75582 = biological target: UniProt O75582

Measured: pIC50

ARAF, sequence (P10398 whole entry): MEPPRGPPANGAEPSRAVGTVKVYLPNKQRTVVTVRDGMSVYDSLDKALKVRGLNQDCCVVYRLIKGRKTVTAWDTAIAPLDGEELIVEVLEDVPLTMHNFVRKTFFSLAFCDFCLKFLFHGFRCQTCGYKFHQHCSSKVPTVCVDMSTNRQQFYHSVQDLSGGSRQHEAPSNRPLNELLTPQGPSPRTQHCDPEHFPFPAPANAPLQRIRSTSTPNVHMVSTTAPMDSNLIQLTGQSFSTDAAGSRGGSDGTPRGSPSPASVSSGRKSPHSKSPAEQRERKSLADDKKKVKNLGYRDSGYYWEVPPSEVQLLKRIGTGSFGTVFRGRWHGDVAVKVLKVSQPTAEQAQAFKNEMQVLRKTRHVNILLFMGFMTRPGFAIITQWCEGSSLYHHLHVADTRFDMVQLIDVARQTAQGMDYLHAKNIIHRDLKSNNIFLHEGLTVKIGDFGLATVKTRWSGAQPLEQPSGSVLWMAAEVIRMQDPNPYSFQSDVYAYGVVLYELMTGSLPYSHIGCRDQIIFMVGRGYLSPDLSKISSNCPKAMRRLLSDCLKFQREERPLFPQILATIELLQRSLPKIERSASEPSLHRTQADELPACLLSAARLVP
UniProt O75460, sequence (O75460 whole entry, looked up): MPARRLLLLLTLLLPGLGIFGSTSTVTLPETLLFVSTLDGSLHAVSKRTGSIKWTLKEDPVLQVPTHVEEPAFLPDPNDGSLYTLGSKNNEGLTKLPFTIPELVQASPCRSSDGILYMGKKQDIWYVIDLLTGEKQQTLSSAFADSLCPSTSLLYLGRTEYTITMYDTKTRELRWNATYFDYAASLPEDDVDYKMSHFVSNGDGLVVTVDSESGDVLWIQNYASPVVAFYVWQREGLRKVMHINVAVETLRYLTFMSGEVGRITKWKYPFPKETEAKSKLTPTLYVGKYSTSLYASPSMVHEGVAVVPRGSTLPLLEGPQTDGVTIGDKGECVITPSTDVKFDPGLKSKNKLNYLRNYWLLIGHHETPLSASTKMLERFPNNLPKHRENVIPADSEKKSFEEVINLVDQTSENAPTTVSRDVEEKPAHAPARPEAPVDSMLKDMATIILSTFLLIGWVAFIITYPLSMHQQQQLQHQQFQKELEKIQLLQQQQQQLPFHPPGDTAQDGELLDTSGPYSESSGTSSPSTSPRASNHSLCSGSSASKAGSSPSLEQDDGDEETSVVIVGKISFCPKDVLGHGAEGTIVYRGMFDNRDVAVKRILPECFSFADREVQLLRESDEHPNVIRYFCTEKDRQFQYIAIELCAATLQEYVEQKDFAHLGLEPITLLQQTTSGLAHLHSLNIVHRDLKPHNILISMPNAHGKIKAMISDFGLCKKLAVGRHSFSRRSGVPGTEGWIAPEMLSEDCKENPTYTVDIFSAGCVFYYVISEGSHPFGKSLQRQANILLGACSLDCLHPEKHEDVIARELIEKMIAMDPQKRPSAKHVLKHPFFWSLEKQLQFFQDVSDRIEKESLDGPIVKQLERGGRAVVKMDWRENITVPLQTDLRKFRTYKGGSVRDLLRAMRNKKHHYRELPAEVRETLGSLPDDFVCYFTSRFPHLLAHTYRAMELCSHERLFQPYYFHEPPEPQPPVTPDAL
UniProt O75582, sequence (O75582 whole entry, looked up): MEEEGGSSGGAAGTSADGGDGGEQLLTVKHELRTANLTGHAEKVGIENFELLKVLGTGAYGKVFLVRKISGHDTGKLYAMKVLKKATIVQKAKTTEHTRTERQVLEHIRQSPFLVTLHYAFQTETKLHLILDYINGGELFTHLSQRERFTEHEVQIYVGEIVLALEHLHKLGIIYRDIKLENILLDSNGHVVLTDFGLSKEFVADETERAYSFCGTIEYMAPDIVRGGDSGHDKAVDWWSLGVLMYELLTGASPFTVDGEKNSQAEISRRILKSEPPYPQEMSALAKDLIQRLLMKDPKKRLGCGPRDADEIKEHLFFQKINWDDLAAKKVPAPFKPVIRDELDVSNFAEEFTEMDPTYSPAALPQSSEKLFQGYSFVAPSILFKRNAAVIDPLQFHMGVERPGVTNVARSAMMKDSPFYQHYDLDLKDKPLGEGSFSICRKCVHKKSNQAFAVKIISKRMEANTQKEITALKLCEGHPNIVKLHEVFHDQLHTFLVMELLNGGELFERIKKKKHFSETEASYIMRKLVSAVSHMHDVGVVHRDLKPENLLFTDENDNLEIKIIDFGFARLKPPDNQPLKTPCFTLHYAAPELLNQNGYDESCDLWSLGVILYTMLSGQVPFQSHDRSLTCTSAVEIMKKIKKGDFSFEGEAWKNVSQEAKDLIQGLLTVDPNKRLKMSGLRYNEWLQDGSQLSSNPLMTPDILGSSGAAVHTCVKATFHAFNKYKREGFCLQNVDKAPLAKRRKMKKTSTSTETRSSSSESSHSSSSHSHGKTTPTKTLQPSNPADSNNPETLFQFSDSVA

CCc1cnn2c(NCc3ccc[n+]([O-])c3)cc(N3CCCC[C@H]3CCO)nc12 [dinaciclib]
< 4.52: all assays above
